Source: article PMC7765321, “Novel Isoniazid-Carborane Hybrids Active In Vitro against Mycobacterium tuberculosis” (Pharmaceuticals, 2020)
Where “and” joins values, the source holds several entries; their conditions need not be identical. Equal values may be shown once.

Tested on: Mtb ΔkatG mutant strain
Assay type: cell-based, Mycobacterium tuberculosis

Row | Compound | katG MIC50 | katG MIC99
1 | NNC(=O)c1ccncc1 [4 (INH), pyridine-4-carbohydrazide, reference compound] | 1100 µM | 1500 µM
2 | N′-((1,2-dicarba-closo-dodecaboran-1-yl)ethyl)isonicotinohydrazide [Compound 23] | 97.60 µM | 240 µM
3 | N′-((1,2-dicarba-closo-dodecaboran-1-yl)ethylidene)isonicotinohydrazide [Compound 20] | 160 µM | 240 µM
4 | N′-((1,2-dicarba-closo-dodecaboran-1-yl)propanoyl)isonicotinohydrazide [Compound 8] | 150 µM | 300 µM
5 | N′-((1,7-dicarba-closo-dodecaboran-1-yl)ethyl)isonicotinohydrazide [Compound 24] | 81.30 µM | 160 µM
6 | N′-((1,7-dicarba-closo-dodecaboran-1-yl)ethylidene)isonicotinohydrazide [Compound 21] | 160 µM | 240 µM
7 | N′-((1,7-dicarba-closo-dodecaboran-1-yl)methylidene)isonicotinohydrazide [Compound 14] | 260 µM | 340 µM
8 | N′-((1,7-dicarba-closo-dodecaboran-1-yl)propanoyl)isonicotinohydrazide [Compound 9] | 150 µM | 300 µM
9 | N′-((1,12-dicarba-closo-dodecaboran-1-yl)ethyl)isonicotinohydrazide [Compound 25] | 3.25 µM | 24.4 µM and 24.40 µM
10 | N′-((1,12-dicarba-closo-dodecaboran-1-yl)ethylidene)isonicotinohydrazide [Compound 22] | 160 µM | 330 µM
11 | N′-((1,12-dicarba-closo-dodecaboran-1-yl)methylidene)isonicotinohydrazide [Compound 15] | 510 µM | 680 µM
12 | N′-((1,12-dicarba-closo-dodecaboran-1-yl)propanoyl)isonicotinohydrazide [Compound 10] | 150 µM | 300 µM
13 | N′-((7,8-dicarba-nido-undecaboranyl)methylidene)isonicotinohydrazide [Compound 16] | 500 µM | >660 µM
